Experimental findings from patent US5064853A, “4(2-indolyl)2-amino-pentanedioic acids and cholecyostokinin use thereof” (Roussel Uclaf, priority 1989, dated 1991) are described below.

The target of one assay is T1, Central CCK receptors (Rattus norvegicus, UniProt P30553).
T1 construct: The cortices of 20 male rats weighing 150 to 200 g were removed and were ground up with a Polytron; from tissue; host or cells: rat cerebral cortex membrane homogenate
T1 sequence (P30553 1-452): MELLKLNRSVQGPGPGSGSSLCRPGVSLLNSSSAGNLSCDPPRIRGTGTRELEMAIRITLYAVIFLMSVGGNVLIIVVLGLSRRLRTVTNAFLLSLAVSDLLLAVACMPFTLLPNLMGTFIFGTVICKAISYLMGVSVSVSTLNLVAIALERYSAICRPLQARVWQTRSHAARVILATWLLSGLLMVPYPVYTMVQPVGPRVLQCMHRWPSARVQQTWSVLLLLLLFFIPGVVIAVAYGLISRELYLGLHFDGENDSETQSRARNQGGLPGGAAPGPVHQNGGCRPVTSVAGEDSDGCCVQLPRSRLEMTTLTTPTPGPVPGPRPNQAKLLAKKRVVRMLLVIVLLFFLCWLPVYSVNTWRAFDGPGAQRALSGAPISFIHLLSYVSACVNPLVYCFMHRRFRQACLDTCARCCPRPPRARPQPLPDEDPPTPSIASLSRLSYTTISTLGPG
The assay can be described thus: Central receptors: 3H CCK8 binding to rat cortex homogenate. As to conditions: 0.5 nM 3H CCK8, 25° C., 30 minutes, read-out: Central CCK IC50: concentration necessary to inhibit the fixed specific radioactivity by 50%. The procedure:
The cortices of 20 male rats weighing 150 to 200 g were removed and were ground up with a Polytron in 0.32M sucrose. After centrifuging, the supernatant was collected and centrifuged. The residue was suspended in 120 ml of Hepes buffer, pH 7.4, (Hepes 10 mM, NaCl 130 mM, MgCl2, 6H2 O 5 mM, bacitracine 250 mg/liter, PMSF 1 mg/liter), and re-centrifuged. The residue was taken up in 120 ml of Hepes buffer pH 7.4, and recentrifuged at 30,000 g for 30 minutes. The residue was then taken up in 500 ml of Hepes buffer pH 7.4, which enabled 240 aliquots of 2 ml of homogenate to be obtained. The incubation was carried out at 25° C. for 30 minutes in the presence of 0.5 nM of 3H CCK8 and the product to be tested (10,000 micromoles for 1 dose, or with a range of 7 doses) or cold CCK8 (10^-6 M), which was the reference product. After the homogenate aliquots were returned to 0° C., they were filtered with Whatman GF/B filters and the filtrates were washed with 3×5 ml of a Tris HCl 50 mM buffer, pH 7.4. The results are expressed in IC50 : concentration necessary to inhibit the fixed specific radioactivity by 50% in the Table below.

The next assay concerns the target T2, Peripheral CCK receptors (Rattus norvegicus, UniProt P30551).
T2 construct: The pancreases of 3 male rats weighing 150-200 g were removed and ground with a Polytron; from tissue; host or cells: rat pancreas membrane homogenate
T2 sequence (P30551 1-444): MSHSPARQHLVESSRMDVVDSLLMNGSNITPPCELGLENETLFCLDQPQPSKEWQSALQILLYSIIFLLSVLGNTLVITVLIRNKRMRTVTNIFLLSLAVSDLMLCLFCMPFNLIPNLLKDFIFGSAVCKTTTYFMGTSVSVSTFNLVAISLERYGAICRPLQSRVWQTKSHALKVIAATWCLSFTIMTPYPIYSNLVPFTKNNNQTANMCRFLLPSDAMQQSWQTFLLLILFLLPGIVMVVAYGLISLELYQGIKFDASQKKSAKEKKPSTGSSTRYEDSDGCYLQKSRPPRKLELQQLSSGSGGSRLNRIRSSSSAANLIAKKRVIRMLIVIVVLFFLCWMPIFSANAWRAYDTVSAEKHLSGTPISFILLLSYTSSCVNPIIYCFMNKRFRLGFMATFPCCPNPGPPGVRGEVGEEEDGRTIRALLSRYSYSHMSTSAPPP
The assay can be described thus: Peripheral receptors: 3H CCK8 binding to rat pancreas homogenate. As to conditions: 3H CCK8, 25° C., 60 minutes, read-out: Peripheral CCK IC50: concentration necessary to inhibit the fixed specific radioactivity by 50%. The procedure:
The pancreases of 3 male rats weighing 150-200 g were removed and ground with a Polytron (4 grindings, speed 3, with an interval of 10 seconds between grindings) and the homogenate was filtered over a gauze, then centrifuged at 30,000 g for 30 minutes. The residue obtained was taken up in 400 volumes (.perspectiveto.600 ml) of Tris 50 mM HCl buffer, pH 7.4, containing 2 g/liter of BSA, 0.1 mM of bacitracin, 5 mM of MgCl2 and 5 mM of dithiothreitol. 2 ml of homogenate aliquots were incubated at 25° C. for 60 minutes in the presence of […] 3H CCK8 and the product to be tested (10,000 micromoles for 1 dose or with a range of 7 doses) and cold CCK8 (10^-6 M) which was the reference product. After returning to 0° C., the aliquots were filtered with Whatman GF/B filters having been previously washed in a 0.05% solution of polyethyleneimine. The filtrate was washed with 3×5 ml of Tris HCl 50 mM buffer, pH 7.4. The results are expressed in IC50 : concentration necessary to inhibit the fixed specific radioactivity by 50%. (IC50 in nanomoles).

In assay [1] the test system is alimentary intake of a rat. The assay can be described thus: Action on the alimentary intake of a rat. As to conditions: 10 mg/kg intra-peritoneally, consumption monitored every hour for 5 hours. Type of assay: in vivo. As to the method: The tests were carried out on groups of 5 rats weighing 250±10 g under the following conditions: the animals were placed individually in cages having a feeding trough described by FREGLY (J. Appln. Physiol., 1960, Vol. 15, p. 539) which had the advantage of avoiding the wastage of food presented when using powdered fodder. The rats were accustomed to taking their daily ration over 5 consecutive hours, drinking water being offered ad libitum. The amounts of food ingested were determined individually by weighing the feeding troughs and the consumptions were monitored every hour for 5 hours after the administration of 10 mg/kg of the compound intra-peritoneally. The amounts consumed were expressed in g/100 g of body weight per hour and the averages were compared with those obtained from the control animals by a DUNNET test.

For the compound `Cc1ccc(C(NC(=O)[C@H](CCC(=O)O)NC(=O)c2cc3ccccc3[nH]2)c2ccc(C)cc2)cc1` [Example 2, (S)-4-[[(1H-indol-2-yl)-carbonyl]-amino]-5-[[bis-(4-methylphenyl)-methyl]-amino]-5-oxo pentanoic acid], the values for the IC50 on Central CCK receptors and at Peripheral CCK receptors were 700 nM and 53 nM, respectively. In assay [1], the “reduction of alimentary consumption relative to control animals” value is 15%.

Regarding `O=C(O)CC[C@H](NC(=O)c1cc2ccccc2[nH]1)C(=O)NC(c1ccc(Cl)cc1)c1ccc(Cl)cc1` [Example 4, (S)-5-[[bis-(4-chlorophenyl)-methyl]-amino]-5-oxo-4-[[(1H-indol-2-yl)-carbonyl]-amino]-pentanoic acid], the IC50 on Central CCK receptors came to 10000 nM; at Peripheral CCK receptors, 96 nM.

On to `COc1ccccc1C(NC(=O)[C@H](CCC(=O)O)NC(=O)c1cc2ccccc2[nH]1)c1ccccc1` (stereo partly drawn) [Example 9, (4S)-4-[[(1H-indol-2-yl)-carbonyl]-amino]-5-[[(2-methoxyphenyl)-benzyl]-amino]-5-oxo pentanoic acid], for which the IC50 at Central CCK receptors is 682 nM; on Peripheral CCK receptors it was 32 nM. In assay [1], the “reduction of alimentary consumption relative to control animals” value is “more than 50%”.

For the compound `O=C(O)CC[C@H](NC(=O)c1cc2ccccc2[nH]1)C(=O)NC1c2ccccc2CCc2ccccc21` [Example 13, (S)-5-[(10,11-dihydro-dibenzo-[a,d]-cyclohepten-5-yl)-amino]-4-[[(1H-indol-2-yl)-carbonyl]-amino]-5-oxo pentanoic acid], the IC50 at Central CCK receptors was found to be 2660 nM; at Peripheral CCK receptors it was 1660 nM.
